Literature values in patent US20250127746A1, “TOPICAL CONTACT SENSITIZERS TO TREAT CANCER” (Squarex Pharmaceutical Corporation, priority 2023, published 2025).
“Also recorded” adds a separate entry of the source.

Experiments:
[1] = tested on: common warts; settings: Candida injected, SADBE applied topically
[2] = tested on: PBMCs stimulated with HSV-1
[3] = tested on: herpes labialis outbreaks
[4] = prevention of cold sore episodes

In the case of `CCCCOc1c(OCCCC)c(=O)c1=O` [SADBE, 3,4-Dibutoxy-3-cyclobutene-1,2-dione], the “efficacy to treat common warts” value [1] is given as “effective in treating warts; also recorded: effective to treat common warts”, the “expression of interferon gamma (IFNG) by isolated PBMCs exposed to HSV” value ([2]; 8 weeks after a topical application to the arm) is given as “increased” and the “PBMC proliferation and immune gene expression profile versus subjects with infrequent or zero outbreaks” value ([2]; 56 days after a single topical dose, versus day 1) is given as “more like those of the subjects with infrequent or zero outbreaks”. The “change of immune response type” value ([2]; single dose, against both herpes simplex virus and Candida extract) was “from a type 2 immune response to a type 1 immune response”, the “time after which efficacy begins to wane” value [3, 4] was 3 to 4 months and the “time for a dose to take effect” value [3, 4] was 2 to 8 weeks. The “number of oral herpes (herpes labialis) outbreaks” value ([3]; topical application to the arm) was “effective in preventing (reducing the number of) herpes labialis episodes; also recorded: reduce frequency of herpes labialis outbreaks; also recorded: prevent and reduce the number of oral herpes outbreaks”.
